From patent US20160326142A1, “PYRAZOLE CARBOXAMIDE COMPOUNDS, COMPOSITIONS AND METHODS OF USE” (Genentech, Inc., priority 2012, published 2016) come the findings set out here.

Molecules are shown by their SMILES. Bounds are passed on as bounds.

For this assay, the target named is T1, ITK (Homo sapiens, UniProt Q08881).
T1 construct: purchased Invitrogen PV3875
T1 sequence (Q08881 1-620): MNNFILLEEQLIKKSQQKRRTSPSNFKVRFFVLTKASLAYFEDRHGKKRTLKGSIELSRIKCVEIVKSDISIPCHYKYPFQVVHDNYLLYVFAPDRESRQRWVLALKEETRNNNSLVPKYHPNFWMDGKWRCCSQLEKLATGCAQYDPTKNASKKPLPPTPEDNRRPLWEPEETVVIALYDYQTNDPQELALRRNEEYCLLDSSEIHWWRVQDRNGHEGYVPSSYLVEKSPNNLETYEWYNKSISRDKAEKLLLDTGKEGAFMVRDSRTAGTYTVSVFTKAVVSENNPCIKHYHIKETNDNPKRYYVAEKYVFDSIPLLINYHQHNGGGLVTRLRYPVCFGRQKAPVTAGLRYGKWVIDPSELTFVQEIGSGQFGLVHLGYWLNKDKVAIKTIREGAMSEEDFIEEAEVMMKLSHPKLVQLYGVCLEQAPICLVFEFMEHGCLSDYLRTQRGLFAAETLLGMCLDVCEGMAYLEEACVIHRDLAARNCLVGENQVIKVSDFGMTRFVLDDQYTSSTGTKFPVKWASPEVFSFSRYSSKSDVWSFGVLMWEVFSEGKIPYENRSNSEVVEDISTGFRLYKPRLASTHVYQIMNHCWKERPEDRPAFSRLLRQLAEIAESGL
The assay can be described thus: ITK enzyme assay (Caliper or LCMS peptide phosphorylation). The class given is biochemical. The conditions noted are these: purified ITK (Invitrogen PV3875), 20 μM ATP, Ki by Morrison's quadratic equation. The gist of the method:
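Purified human ITK peptide phosphorylation, quenched with EDTA (50 mM final) for Caliper LabChip separation or TCA (5% v/v final) for UPLC-MS/MS MRM quantification. Ki derived via Morrison tight-binding equation, corrected for competitive inhibition using ATP concentration relative to Km,app.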
In general, Ki refers to the dissociation constant of the complex between target and ligand, obtained from inhibition or displacement. The low end stands for a stronger hold on the target, the high end for a looser hold on the target. Compound `CC1(C)CCc2c(C(=O)Nc3cnn(C(c4cccnc4)C4CC[S+]([O-])CC4)c3)n[nH]c2C1` (single isomer, unassigned) [Example 147a, 6,6-dimethyl-N-(1-((1-oxidotetrahydro-2H-thiopyran-4-yl)(pyridin-3-yl)methyl)-1H-pyrazol-4-yl)-4,5,6,7-tetrahydro-1H-indazole-3-carboxamide] displayed a Ki of 0.6 nM. In other words, the sub-nanomolar range.

`CC1(C)CCc2c(C(=O)Nc3cnn(C(c4cccnc4)C4CC[S+]([O-])CC4)c3)n[nH]c2C1` (single isomer, unassigned) [Example 147b, 6,6-dimethyl-N-(1-((1-oxidotetrahydro-2H-thiopyran-4-yl)(pyridin-3-yl)methyl)-1H-pyrazol-4-yl)-4,5,6,7-tetrahydro-1H-indazole-3-carboxamide]: affinity was put at a Ki of 4 nM.

For `CC1(C)CCc2c(C(=O)Nc3cnn(C(c4cccnc4)C4CC[S+]([O-])CC4)c3)n[nH]c2C1` (single isomer, unassigned) [Example 147c, 6,6-dimethyl-N-(1-((1-oxidotetrahydro-2H-thiopyran-4-yl)(pyridin-3-yl)methyl)-1H-pyrazol-4-yl)-4,5,6,7-tetrahydro-1H-indazole-3-carboxamide], the Ki was found to be 7 nM.

In turn, `CC1(C)CCc2c(C(=O)Nc3cnn(C(c4cccnc4)C4CC[S+]([O-])CC4)c3)n[nH]c2C1` (single isomer, unassigned) [Example 147d, 6,6-dimethyl-N-(1-((1-oxidotetrahydro-2H-thiopyran-4-yl)(pyridin-3-yl)methyl)-1H-pyrazol-4-yl)-4,5,6,7-tetrahydro-1H-indazole-3-carboxamide] registered a Ki of 0.6 nM.

With `O=C1CCC2(CCc3c(C(=O)Nc4cnn(Cc5ccccc5)c4)n[nH]c3C2)N1` (single isomer, unassigned) [Example 148a, N-(1-benzyl-1H-pyrazol-4-yl)-5′-oxo-1,4,5,7-tetrahydrospiro[indazole-6,2′-pyrrolidine]-3-carboxamide], the Ki was greater than 400 nM.

As for `O=C1CCC2(CCc3c(C(=O)Nc4cnn(Cc5ccccc5)c4)n[nH]c3C2)N1` (single isomer, unassigned) [Example 148b, N-(1-benzyl-1H-pyrazol-4-yl)-5′-oxo-1,4,5,7-tetrahydrospiro[indazole-6,2′-pyrrolidine]-3-carboxamide], the Ki is greater than 400 nM.

In turn, `CC1(N2CCOCC2)CCc2c(C(=O)Nc3cnn(Cc4ccccc4)c3)n[nH]c2C1` (single isomer, unassigned) [Example 149a, N-(1-benzyl-1H-pyrazol-4-yl)-6-methyl-6-morpholino-4,5,6,7-tetrahydro-1H-indazole-3-carboxamide] had a Ki greater than 400 nM.

As for `CC1(N2CCOCC2)CCc2c(C(=O)Nc3cnn(Cc4ccccc4)c3)n[nH]c2C1` (single isomer, unassigned) [Example 149b, N-(1-benzyl-1H-pyrazol-4-yl)-6-methyl-6-morpholino-4,5,6,7-tetrahydro-1H-indazole-3-carboxamide], the Ki was greater than 400 nM.

Regarding `CC12Cc3[nH]nc(C(=O)Nc4cnn(Cc5ccccc5)c4)c3C1C2` (single isomer, unassigned) [Example 150a, N-(1-benzyl-1H-pyrazol-4-yl)-4a-methyl-3b,4,4a,5-tetrahydro-1H-cyclopropa[3,4]cyclopent a[1,2-c]pyrazole-3-carboxamide], the affinity, expressed as Ki, was 130 nM.

Regarding `CC12Cc3[nH]nc(C(=O)Nc4cnn(Cc5ccccc5)c4)c3C1C2` (single isomer, unassigned) [Example 150b, N-(1-benzyl-1H-pyrazol-4-yl)-4a-methyl-3b,4,4a,5-tetrahydro-1H-cyclopropa[3,4]cyclopent a[1,2-c]pyrazole-3-carboxamide], the affinity, expressed as Ki, was 32 nM.

Regarding `CC12Cc3c(C(=O)Nc4cnn(Cc5ccccc5)c4)n[nH]c3C1C2` (single isomer, unassigned) [Example 151a, N-(1-benzyl-1H-pyrazol-4-yl)-4a-methyl-4,4a,5,5a-tetrahydro-1H-cyclopropa[4,5]cyclopent a[1,2-c]pyrazole-3-carboxamide], the Ki stood at 16 nM.

`CC12Cc3c(C(=O)Nc4cnn(Cc5ccccc5)c4)n[nH]c3C1C2` (single isomer, unassigned) [Example 151b, N-(1-benzyl-1H-pyrazol-4-yl)-4a-methyl-4,4a,5,5a-tetrahydro-1H-cyclopropa[4,5]cyclopent a[1,2-c]pyrazole-3-carboxamide] registered a Ki of 12 nM. The Ki values of the last two compounds are within 1.5-fold of each other.

As to `CC12Cc3c(C(=O)Nc4cnn(C(c5ccccc5)C5CCS(=O)(=O)CC5)c4)n[nH]c3C1C2` (single isomer, unassigned) [Example 152a, N-(1-((1,1-dioxidotetrahydro-2H-thiopyran-4-yl)(phenyl)methyl)-1H-pyrazol-4-yl)-4a-methyl-4,4a,5,5a-tetrahydro-1H-cyclopropa[4,5]cyclopenta[1,2-c]pyrazole-3-carboxamide], the Ki worked out at 42 nM. This Ki is about 3.5-fold higher than that of the compound before.

The compound `CC12Cc3c(C(=O)Nc4cnn(C(c5ccccc5)C5CCS(=O)(=O)CC5)c4)n[nH]c3C1C2` (single isomer, unassigned) [Example 152b, N-(1-((1,1-dioxidotetrahydro-2H-thiopyran-4-yl)(phenyl)methyl)-1H-pyrazol-4-yl)-4a-methyl-4,4a,5,5a-tetrahydro-1H-cyclopropa[4,5]cyclopenta[1,2-c]pyrazole-3-carboxamide] displayed a Ki of 3 nM.

Compound `CC12Cc3c(C(=O)Nc4cnn(C(c5ccccc5)C5CCS(=O)(=O)CC5)c4)n[nH]c3C1C2` (single isomer, unassigned) [Example 152c, N-(1-((1,1-dioxidotetrahydro-2H-thiopyran-4-yl)(phenyl)methyl)-1H-pyrazol-4-yl)-4a-methyl-4,4a,5,5a-tetrahydro-1H-cyclopropa[4,5]cyclopenta[1,2-c]pyrazole-3-carboxamide] registered a Ki of 2 nM.

For `CC12Cc3c(C(=O)Nc4cnn(C(c5ccccc5)C5CCS(=O)(=O)CC5)c4)n[nH]c3C1C2` (single isomer, unassigned) [Example 152d, N-(1-((1,1-dioxidotetrahydro-2H-thiopyran-4-yl)(phenyl)methyl)-1H-pyrazol-4-yl)-4a-methyl-4,4a,5,5a-tetrahydro-1H-cyclopropa[4,5]cyclopenta[1,2-c]pyrazole-3-carboxamide], the Ki turned out to be 15 nM. Against the preceding compound, the Ki is about 7.5-fold higher.

As to `CC12CCc3c(C(=O)Nc4cnn(Cc5ccccc5)c4)n[nH]c3C1C2` (single isomer, unassigned) [Example 153a, N-(1-benzyl-1H-pyrazol-4-yl)-5a-methyl-1,4,5,5a,6,6a-hexahydrocyclopropa[g]indazole-3-c arboxamide], the Ki was found to be 58 nM.

Turning to `CC12CCc3c(C(=O)Nc4cnn(Cc5ccccc5)c4)n[nH]c3C1C2` (single isomer, unassigned) [Example 153b, N-(1-benzyl-1H-pyrazol-4-yl)-5a-methyl-1,4,5,5a,6,6a-hexahydrocyclopropa[g]indazole-3-c arboxamide], the Ki came to 15 nM.

In turn, `CC1(C)CCc2c(C(=O)Nc3cnn(C(c4cccc(S(C)(=O)=O)c4)C4CCOCC4)c3)n[nH]c2C1` (single isomer, unassigned) [Example 154a, 6,6-dimethyl-N-(1-((3-(methylsulfonyl)phenyl)(tetrahydro-2H-pyran-4-yl)methyl)-1H-pyrazol-4-yl)-4,5,6,7-tetrahydro-1H-indazole-3-carboxamide] registered a Ki of 0.1 nM. This Ki is about 150-fold lower than that of the compound before.
